Assays:
[1] = cited from earlier work
[2] = particle size by Malvern laser diffraction; type: physicochemical
Description: The particle size of oxcarbazepine may be measured using laser light diffraction technique based instrument such as a Malvern Mastersizer Microplus apparatus. Other known methods of measuring particle size may also be used. The particle size distribution of oxcarbazepine was checked after subjecting the slurry of oxcarbazepine and the hydrophilic polymer in a solvent, to mixing in a colloid mill. The particle size was determined by Malvern laser diffraction technique. The particles were dispersed in an aqueous dispersion medium of Tween 20 (0.1 ml/litre).

[3] = Example 1 slurry after mixing in colloid mill, dispersed in aqueous Tween 20
[4] = oxcarbazepine used for the slurry of Example 2

- Particle size D (v, 0.1) 10% particles undersized [2, 3]: 6.93 μm
- Particle size D (v, 0.5) 50% particles undersized [2, 3]: 20.56 μm
- Particle size D (v, 0.91) 90% particles undersized [2, 3]: 45.97 μm
- median particle size D50 [2, 4]: 24.91 μm
- particle size D10 [2, 4]: 6.59 μm
- particle size D90 [2, 4]: 63.31 μm
Structure (SMILES): NC(=O)N1c2ccccc2CC(=O)c2ccccc21 [oxcarbazepine, 10,11-Dihydro-10-oxo-5H-dibenz [b,f]azepine-5-carboxamide]
- solubility in water [1]: practically insoluble
